The text below walks through data of patent US20240360137A1 (Novartis AG, priority 2023, published 2024).

What all share (assay): CDKi biochemical assay (TR-FRET, phosphorylation of S780 on RB1 peptide)
In general terms: In TR-FRET formats the signal depends on donor and acceptor labels being close together.

One test deals with CDK2/CyclinE1 (Homo sapiens, UniProt P24941). The following applies: CDK2/CyclinE1 100 pM, 1 mM ATP, 60 min at 25° C. As for the experimental part:
(§1) Biochemical assays measured the inhibitory effects of compounds in this disclosure on the enzymatic activity of CDK enzyme in complex with Cyclin protein partner by phosphorylation of Ser-780 (S780) on retinoblastoma protein peptide (RB1) in the presence of 1 mM adenosime-5-triphosphate (ATP) and varying concentration of test compound in 20 mM 2-[4-(2-hydroxyethyl)paperazin-1-yl] ethanesulfonic acid (HEPES), pH 7.5, 10 mM MgCl2, 1 mM dithiothreitol (DTT), 0.01% bovine serum albumin (BSA), 0.005% Tween 20. Total Reaction volume of 10 μL proceeded for 60 minutes at room temperature (25° C.) and were quenched with 5 μL of 200 mM 2′,2″,2′″-(Ethane-1,2-diyldinitrilo)tetraacetic acid (EDTA) pH 8.0 before addition of 5 μL detection solution containing 100 nM fluorophore conjugate streptavidin allophycocyanin (SA-APC), 2 nM Europium labelled Anti-p-RB(S780)-K (Perkin Elmer, 64CUSKAY), 50 mM HEPES, pH 7.5, 400 mM potassium fluoride (KF), 0.1% BSA, and 0.01% Tween-20. Phosphorylation of S780 on RB1 peptide (His-MBP-RB1[773-924]-SEQ ID NO. 9) was detected by TR-FRET after 3 hour incubation with detection solution. Percent phosphorylation activity was plotted against log concentration of compound to generate an apparent ICSO. The following CDK enzyme in complex with different cyclin proteins and protein peptide substrate were used in these assays: • CDK1/CyclinB1, Avi-tag, 10 pM used in the assay • CDK2/CyclinE1, Avi-tag, 100 pM used in the assay • CDK4/cyclinD1, Avi-tag, 20 pM used in the assay • CDK6/cyclinD3, Avi-tag, 10 pM used in the assay • His-MBP-RB1[773-924], Avi-tag, 200 nM used in the assay
(§2) The avi-tag is a C-terminal fusion on the CDK1/2/4/6 sequence in each of these two-protein complexes. The known avi-tag sequence, […] (SEQ ID NO. 10), is a substrate for E. coli biotin ligase BirA, which covalently attaches a biotin molecule to the e-amino group of the lysine in that sequence. The avi-tag is attached with an 8 amino-acid linker sequence GGSGGGGS (SEQ ID NO. 11), resulting in the full C-terminal fusion
(§3) Recombinant proteins were generated as N-terminal fusions of 9× His tag—E. coli Maltose Binding Protein (MBP), with or without a C-terminal Avi-tag.^1 CDK2 and His-MBP-RB1[773-924]-c-avi were expressed in E. coli while the remainder were expressed in Sf21 insect cells. Genes were synthesized commercially (GeneArt and Twist Bioscience) using codon frequencies appropriate to the respective organisms and proprietary codon optimization strategies, and inserted into pET 24 (E. coli) or pDEST8 (insect) vectors already containing the 9× His-MBP tag using standard methods of PCR and Gibson Assembly.^2 E. coli expression was performed by auto-induction overnight at 18 or 21 C. For insect cell expression, bacmids and viruses were created,^3 then used to synchronously infect Sf21 insect cells with harvest at 40-48 hrs., per standard protocols.^4
(§4) For CDK2/Cyclin E and CDK1/Cyclin B, the CDK and Cyclin proteins were expressed separately, lysed by sonication and clarified by centrifugation. The fusion proteins were each separately purified by immobilized metal ion affinity chromatography (IMAC) (5 mL HisTrap, Cytiva) and Superdex 200 26/60 (Cytiva) size-exclusion and complexed in vitro (1-3 hrs incubation at room temperature) prior to tag cleavage by recombinant his-tagged Tobacco Etch Virus protease or his-tagged Human rhinovirus 3C protease, as appropriate. The cleaved complex is further purified by Superdex 75 26/60 (Cytiva) size-exclusion followed by reverse-IMAC, in which the complex is in the column flow-through and residual His-MBP and his-tagged proteases are retained. The final complex is concentrated as desired by centrifugal concentration (Amicon Ultra 10,000 Da MWCO 15 mL concentrators, Millipore).
For E. coli expressed CDK2 and His-MBP-RB1[773-924]-c-avi, the proteins were biotinylated in vitro after the first IMAC step.^1
(§5) For the is-MBP-RB1[773-924]-c-avi, the protein was lysed by sonication and clarified by centrifugation. […]

Another test has as its target CDK1/CyclinB1 (Homo sapiens, UniProt P06493). To be noted: CDK1/CyclinB1 10 pM, 1 mM ATP, 60 min at 25° C. As for the experimental part:
as §1, §2, §3, §4, §5

Another test concerns the target CDK4/cyclinD1 (Homo sapiens, UniProt P11802). To be noted: CDK4/cyclinD1 20 pM, 1 mM ATP, 60 min at 25° C. As for the experimental part: as §1, §2, §3
(§6) For CDK4/Cyclin D1 and CDK6/Cyclin D3, the complexes were expressed by simultaneous co-infection of insect cells by three separate viruses including one expressing untagged E. coli BirA. The expression media is supplemented with 50 uM d-biotin. The resulting protein complexes purified similarly. After lysis and clarification, the complex is purified by IMAC, Superdex 200 26/60 size exclusion, tag cleavage by human rhinovirus 3C protease, Superdex 75 26/60 size exclusion and reverse IMAC. BirA is typically not retained on the first IMAC, and excess CDK or Cyclin monomer is separated on the Superdex 200 size exclusion. Cleaved His-MBP and remaining monomer are removed by the Superdex 75 size exclusion and the reverse IMAC step. Final concentration by centrifugal concentrators as described above.
as §5

A further test concerns the target CDK6/cyclinD3 (Homo sapiens, UniProt Q00534). The following applies: CDK6/cyclinD3 10 pM, 1 mM ATP, 60 min at 25° C. As for the experimental part:
as §1, §2, §3, §6, §5

Broadly, the IC50 is the point on the concentration scale where inhibition reaches its midpoint. Lower therefore signals greater potency in that assay.

Molecules are shown by their SMILES.

`O=C1N([C@@H]2CCC[C@@H](O)C2)c2nc(Nc3c[nH]nc3O[C@@H]3COC[C@H]3F)ncc2C12CC2` [Example 24, 2′-((3-(((3R,4R)-4-fluorotetrahydrofuran-3-yl)oxy)-1H-pyrazol-4-yl)amino)-7′-((1R,3R)-3-hydroxycyclohexyl)spiro[cyclopropane-1,5′-pyrrolo[2,3-d]pyrimidin]-6′(7′H)-one]: the IC50 at CDK2/CyclinE1 is 0.012 µM; against CDK1/CyclinB1, 2.02 µM; against CDK4/cyclinD1 it was 3.91 µM; on CDK6/cyclinD3 it was at least 10 µM.

On to `O=C1N([C@@H]2CCC[C@@H](O)C2)c2nc(Nc3c[nH]nc3Cl)ncc2C12CC2` [Example 13, 2′-((3-chloro-1H-pyrazol-4-yl)amino)-7′-((1R,3R)-3-hydroxycyclohexyl)spiro[cyclopropane-1,5′-pyrrolo[2,3-d]pyrimidin]-6′(7′H)-one], for which the 50% inhibitory concentration (IC50) came to 0.012 µM on CDK2/CyclinE1, 0.92 µM against CDK1/CyclinB1, 5.28 µM on CDK4/cyclinD1 and 7.1 µM at CDK6/cyclinD3.

In the case of `COc1n[nH]cc1Nc1ncc2c(n1)N([C@@H]1CCC[C@@H](O)C1)C(=O)C21CC1` [Example 12, 7′-((1R,3R)-3-hydroxycyclohexyl)-2′-((3-methoxy-1H-pyrazol-4-yl)amino)spiro[cyclopropane-1,5′-pyrrolo[2,3-d]pyrimidin]-6′(7′H)-one], the half-inhibitory concentration (IC50) on CDK2/CyclinE1 came out at 0.02 µM; against CDK1/CyclinB1, 2.24 µM; against CDK4/cyclinD1 it was 7.37 µM; at CDK6/cyclinD3, 7.9 µM.

As for `O=C1N([C@@H]2CCC[C@@H](O)C2)c2nc(Nc3c[nH]nc3C3CC3)ncc2C12CC2` [Example 14, 2′-((3-cyclopropyl-1H-pyrazol-4-yl)amino)-7′-((1R,3R)-3-hydroxycyclohexyl)spiro[cyclopropane-1,5′-pyrrolo[2,3-d]pyrimidin]-6′(7′H)-one], the IC50 against CDK2/CyclinE1 was 0.03 µM; at CDK1/CyclinB1, 1.55 µM; against CDK4/cyclinD1, at least 10 µM; on CDK6/cyclinD3, at least 10 µM.

Consider `O=C1N([C@@H]2CCC[C@@H](O)C2)c2nc(Nc3c[nH]nc3O[C@H]3CC3(F)F)ncc2C12CC2` [Example 69], for which the concentration for half-maximal inhibition (IC50) on CDK2/CyclinE1 worked out at 0.006 µM; against CDK1/CyclinB1, 0.8 µM; on CDK4/cyclinD1 it was 2.61 µM; against CDK6/cyclinD3 it was 6.03 µM.

`Cn1ncc(-c2n[nH]cc2Nc2ncc3c(n2)N([C@@H]2CCC[C@@H](O)C2)C(=O)C32CC2)c1C(F)(F)F` [Example 84, 7′-((1R,3R)-3-hydroxycyclohexyl)-2′-((1′-methyl-5′-(trifluoromethyl)-1H,1′H-[3,4′-bipyrazol]-4-yl)amino)spiro[cyclopropane-1,5′-pyrrolo[2,3-d]pyrimidin]-6′(7′H)-one]: the IC50 is 0.088 µM at CDK2/CyclinE1, at least 10 µM on CDK1/CyclinB1, at least 10 µM against CDK4/cyclinD1 and at least 10 µM on CDK6/cyclinD3.

In the case of `O=C1N([C@@H]2CCC[C@@H](O)C2)c2nc(Nc3cnn4c3CNCC4)ncc2C12CC2` [Example 9, 7′-((1R,3R)-3-hydroxycyclohexyl)-2′-((4,5,6,7-tetrahydropyrazolo[1,5-a]pyrazin-3-yl)amino)spiro[cyclopropane-1,5′-pyrrolo[2,3-d]pyrimidin]-6′(7′H)-one], the half-inhibitory concentration (IC50) against CDK2/CyclinE1 was 0.268 µM; on CDK1/CyclinB1, at least 10 µM; at CDK4/cyclinD1, at least 10 µM; at CDK6/cyclinD3, at least 10 µM.

On to `O=C1N([C@@H]2CCC[C@@H](O)C2)c2nc(Nc3c[nH]nc3OCC(F)(F)F)ncc2C12CC2` [Example 56, 7′-((1R,3R)-3-hydroxycyclohexyl)-2′-((3-(2,2,2-trifluoroethoxy)-1H-pyrazol-4-yl)amino)spiro[cyclopropane-1,5′-pyrrolo[2,3-d]pyrimidin]-6′(7′H)-one], for which the IC50 came out at 0.01 µM against CDK2/CyclinE1, 0.8 µM against CDK1/CyclinB1, 3.13 µM at CDK4/cyclinD1 and 6.28 µM against CDK6/cyclinD3.

Regarding `O=C1N([C@@H]2CCC[C@@H](O)C2)c2nc(Nc3c[nH]nc3O[C@H]3COC[C@H]3F)ncc2C12CC2` [Example 27, 2′-((3-(((3S,4R)-4-fluorotetrahydrofuran-3-yl)oxy)-1H-pyrazol-4-yl)amino)-7′-((1R,3R)-3-hydroxycyclohexyl)spiro[cyclopropane-1,5′-pyrrolo[2,3-d]pyrimidin]-6′(7′H)-one], the IC50 against CDK2/CyclinE1 worked out at 0.011 µM; at CDK1/CyclinB1, 1.92 µM; against CDK4/cyclinD1, 1.28 µM; at CDK6/cyclinD3, 3.18 µM.

For `CSCc1n[nH]cc1Nc1ncc2c(n1)N([C@@H]1CCC[C@@H](O)C1)C(=O)C21CC1` [Example 68, 7′-((1R,3R)-3-hydroxycyclohexyl)-2′-((3-((methylthio)methyl)-1H-pyrazol-4-yl)amino)spiro[cyclopropane-1,5′-pyrrolo[2,3-d]pyrimidin]-6′(7′H)-one], the half-maximal inhibitory concentration (IC50) against CDK2/CyclinE1 was determined as 0.007 µM; against CDK1/CyclinB1 it was 0.97 µM; on CDK4/cyclinD1, 4.15 µM; against CDK6/cyclinD3, 7.6 µM.

For the compound `O=C1N([C@@H]2CCC[C@@H](O)C2)c2nc(Nc3c[nH]nc3-c3cnn4c3CCC4)ncc2C12CC2` [Example 47, 2′-((3-(5,6-dihydro-4H-pyrrolo[1,2-b]pyrazol-3-yl)-1H-pyrazol-4-yl)amino)-7′-((1R,3R)-3-hydroxycyclohexyl)spiro[cyclopropane-1,5′-pyrrolo[2,3-d]pyrimidin]-6′(7′H)-one], the half-maximal inhibitory concentration (IC50) against CDK2/CyclinE1 is 0.027 µM; against CDK1/CyclinB1, at least 10 µM; against CDK4/cyclinD1, 6.38 µM; against CDK6/cyclinD3, 7.55 µM.

On to `O=C1N([C@@H]2CCC[C@@H](O)C2)c2nc(Nc3c[nH]nc3-c3cnn4ccccc34)ncc2C12CC2` [Example 28, 7′-((1R,3R)-3-hydroxycyclohexyl)-2′-((3-(pyrazolo[1,5-a]pyridin-3-yl)-1H-pyrazol-4-yl)amino)spiro[cyclopropane-1,5′-pyrrolo[2,3-d]pyrimidin]-6′(7′H)-one], for which the half-maximal inhibitory concentration (IC50) was determined as 0.011 µM against CDK2/CyclinE1, 1.18 µM on CDK1/CyclinB1, 2.12 µM on CDK4/cyclinD1 and 2.54 µM on CDK6/cyclinD3.

For `O=C1N([C@@H]2CCCC[C@@H](O)C2)c2nc(Nc3c[nH]nc3Cl)ncc2C12CC2` [Example 19, 2′-((3-chloro-1H-pyrazol-4-yl)amino)-7′-((1R,3R)-3-hydroxycycloheptyl)spiro[cyclopropane-1,5′-pyrrolo[2,3-d]pyrimidin]-6′(7′H)-one], the IC50 against CDK2/CyclinE1 is 0.044 µM; on CDK1/CyclinB1, 4.12 µM; at CDK4/cyclinD1, 7.58 µM; against CDK6/cyclinD3 it was 9.16 µM.
